Patent US12257216B2, “Treatment for hot flushes” (Dignity Health, priority 2017, dated 2025)
“Also recorded” adds a separate entry of the source.

Columns and labels:
ovariectomized rats [1] = assay: ambient warming-induced cold-seeking test in a thermogradient apparatus; assay type: in vivo, rat; conditions: vs OVX Vehicle+Vehicle
Protocol: Experiments were performed in adult female Wistar rats (Envigo) weighting 240-280 g at the day of the first surgery (Day 0). Rats were housed three per cage in standard “show boxes”. The room was maintained on a 12:12 h light-dark cycle (lights-on at 6 AM) at 24±2° C. All protocols were approved by the Institutional Animal Care and Use Committee.
On Day 0, each rat was subjected to a bilateral ovariectomy or sham surgery, either with or without simultaneous implantation of a miniature data logger into the peritoneal cavity for body temperature measurement. On Day 7, the ovariectomized rats were implanted subcutaneously with a capsule containing either estradiol or vehicle, and the sham-operated rats were implanted with a capsule containing vehicle. On Days 6-15, the rats were habituated to experimental setups and procedures. The rats were taken into experiments between Days 16 and 20 (Experiments 1-3) or on Days 13 and 20 (Experiment 4); each rat was used in two experiments. Thermal discomfort was studied in one of two tests: the ambient warming-induced cold-seeking test in a thermogradient apparatus (cold-seeking test; Experiments 1-3) or the internal warming-induced cessation of warm sucrose intake test (sucrose intake cessation test; Experiment 4). Some ovariectomized rats were treated with a TRPV1. antagonist (capsazepine, Al 165442, or SB366791) or vehicle prior to a test. After experiments (Day 21), each rat used in Experiments 1-3 was euthanized, and the uterus was removed and weighed to confirm the completeness of the ovariectomy and the effectiveness of the estradiol replacement procedure.
The goal of Experiment 1 was to determine whether ovariectomy facilitates the cold-seeking behavior after heat exposure, and whether this facilitation (if it occurs) is estradiol-dependent. […]
Cold-seeking test. […] The preferred ambient temperature was recorded for 10 min. […]

TRPV1 = TRPV1 (Homo sapiens, UniProt Q8NER1); conditions: cited from earlier work
TRPV1, sequence (Q8NER1 whole entry, species assumed): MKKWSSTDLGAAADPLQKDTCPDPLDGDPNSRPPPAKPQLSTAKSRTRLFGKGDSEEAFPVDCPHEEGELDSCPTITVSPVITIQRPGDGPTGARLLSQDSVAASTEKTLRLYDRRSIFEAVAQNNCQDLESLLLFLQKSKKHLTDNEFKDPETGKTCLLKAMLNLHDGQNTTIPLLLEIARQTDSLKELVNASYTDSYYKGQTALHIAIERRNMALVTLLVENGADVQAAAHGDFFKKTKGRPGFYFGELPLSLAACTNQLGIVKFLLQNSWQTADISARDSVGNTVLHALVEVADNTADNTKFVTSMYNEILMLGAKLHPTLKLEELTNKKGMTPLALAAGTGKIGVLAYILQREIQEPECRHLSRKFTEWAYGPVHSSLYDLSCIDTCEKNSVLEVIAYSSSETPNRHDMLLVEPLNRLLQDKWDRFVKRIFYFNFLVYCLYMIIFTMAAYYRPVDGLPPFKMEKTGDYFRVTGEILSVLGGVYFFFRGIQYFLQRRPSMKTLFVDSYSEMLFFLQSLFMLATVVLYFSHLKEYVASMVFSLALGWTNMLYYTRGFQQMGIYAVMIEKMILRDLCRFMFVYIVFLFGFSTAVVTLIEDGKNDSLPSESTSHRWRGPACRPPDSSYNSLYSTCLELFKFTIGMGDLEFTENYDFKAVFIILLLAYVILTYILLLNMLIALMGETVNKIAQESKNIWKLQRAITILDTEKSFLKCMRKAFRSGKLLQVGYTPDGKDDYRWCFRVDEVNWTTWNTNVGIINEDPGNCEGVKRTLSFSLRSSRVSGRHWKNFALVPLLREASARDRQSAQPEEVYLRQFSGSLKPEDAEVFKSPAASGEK

[2] = as supported by animal studies; cited from earlier work
ovariectomized rats [3] = assay: uterus mass after ovariectomy and estradiol replacement; assay type: in vivo, rat; conditions: Experiment 1; ovariectomized rats with estradiol replacement; mean±SE; Day 21
Description: On Day 0, each rat was subjected to a bilateral ovariectomy or sham surgery, either with or without simultaneous implantation of a miniature data logger into the peritoneal cavity for body temperature measurement. On Day 7, the ovariectomized rats were implanted subcutaneously with a capsule containing either estradiol or vehicle, and the sham-operated rats were implanted with a capsule containing vehicle. On Days 6-15, the rats were habituated to experimental setups and procedures. The rats were taken into experiments between Days 16 and 20 (Experiments 1-3) or on Days 13 and 20 (Experiment 4); each rat was used in two experiments. Thermal discomfort was studied in one of two tests: the ambient warming-induced cold-seeking test in a thermogradient apparatus (cold-seeking test; Experiments 1-3) or the internal warming-induced cessation of warm sucrose intake test (sucrose intake cessation test; Experiment 4). Some ovariectomized rats were treated with a TRPV1. antagonist (capsazepine, Al 165442, or SB366791) or vehicle prior to a test. […] All data arc expressed as mean±SE. The preferred ambient temperature and sucrose intake data analyzed by a two-way repeated-measurements ANOVA, followed by the Fisher or Newman-Keuls multiple comparisons test, as appropriate. The uterus mass data were analyzed by a one-way ANOVA followed by the Fisher test. […]

ovariectomized rats [4] = assay: internal warming-induced cessation of warm sucrose intake test (sucrose intake cessation test); assay type: in vivo, rat; conditions: Experiment 4, SB366791 10 mg/kg by oral gavage 20 min prior to heat exposure (32.5° C., 10 min), vs OVX Vehicle+Vehicle
Protocol: Experiments were performed in adult female Wistar rats (Envigo) weighting 240-280 g at the day of the first surgery (Day 0). Rats were housed three per cage in standard “show boxes”. The room was maintained on a 12:12 h light-dark cycle (lights-on at 6 AM) at 24±2° C. All protocols were approved by the Institutional Animal Care and Use Committee. On Day 0, each rat was subjected to a bilateral ovariectomy or sham surgery, either with or without simultaneous implantation of a miniature data logger into the peritoneal cavity for body temperature measurement. On Day 7, the ovariectomized rats were implanted subcutaneously with a capsule containing either estradiol or vehicle, and the sham-operated rats were implanted with a capsule containing vehicle. On Days 6-15, the rats were habituated to experimental setups and procedures. […] Each burette was fitted with a stainless steel spout and filled with a 0.3 M sucrose solution at either 27 or 40° C., and sucrose solution consumption was recorded for 15 min. […] All data arc expressed as mean±SE. The preferred ambient temperature and sucrose intake data analyzed by a two-way repeated-measurements ANOVA, followed by the Fisher or Newman-Keuls multiple comparisons test, as appropriate. The uterus mass data were analyzed by a one-way ANOVA followed by the Fisher test. […]

Cc1cc2c(NC(=O)N[C@@H]3CC(CF)(CF)Oc4cc(Cl)ccc43)cccc2cn1 [A1165442]
heat exposure-induced cold-seeking behavior (preferred ambient temperature) (ovariectomized rats [1]; Experiment 3, A1165442 100 mg/kg by oral gavage prior to 10-min mild heat exposure (31° C.), 100 mg/kg): strongly attenuated; also recorded: treat this thermal discomfort; also recorded: significant difference

FC(F)(F)c1ccc(-c2cc(Nc3ccc4ncsc4c3)ncn2)c(NCC2CCCCC2)c1 [AMG7905]
effect on activation of TRPV1 by protons (TRPV1): potentiate the activation of TRPV1 by protons
effect on body temperature [2]: cause hypothermia

C[C@]12CC[C@@H]3c4ccc(O)cc4CC[C@H]3[C@@H]1CC[C@@H]2O [Estradiol, estradiol]
uterus mass (ovariectomized rats [3]): 0.42 ± 0.02 g

COc1cccc(NC(=O)/C=C/c2ccc(Cl)cc2)c1 [SB366791]
cumulative intake of warm (40° C.) sucrose solution (avoidance of internal warming) (ovariectomized rats [4]): attenuated; also recorded: treat this thermal discomfort; also recorded: significant difference

Oc1cc2c(cc1O)CN(C(=S)NCCc1ccc(Cl)cc1)CCC2 [capsazepine]
heat exposure-induced cold-seeking behavior (preferred ambient temperature) (ovariectomized rats [1]; Experiment 2, capsazepine 40 mg/kg by oral gavage 30 min prior to 10-min mild heat exposure (31° C.)): strongly attenuated; also recorded: treat this thermal discomfort
heat exposure-induced cold-seeking behavior (preferred ambient temperature) (ovariectomized rats [1]; Experiment 2, capsazepine 40 mg/kg by oral gavage 30 min prior to 10-min mild heat exposure (31° C.), listed as Capsazepine): significant difference
